Reference: the supplement of paper PMC4862054

Assays:
BT-549 [1] = test: drug sensitivity score (DSS), CellTiter-Glo (DSS (AUC-based score)); higher = stronger drug effect (viability inhibition or cytotoxicity); extreme values may be limits of the assay; conditions: incubation time: 72 h
Outline: (§1)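 Plates with 384 wells held compound at 5 concentrations in 10-fold steps over a 10,000-fold range specific to each compound. Breast cancer cell lines were added in 20 µl suspension and incubated 72 h, then read for CellTox Green and CellTiter-Glo signals, with each plate normalised to 0.1 % DMSO and a positive kill control. The drug sensitivity score is based on the area under the fitted dose-response curve.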

MCF-10A = test: as above; conditions: incubation time: 72 h
Outline: as §1

MFM-223 [2] = test: as above; conditions: incubation time: 72 h
Outline: as §1

HCC1937 [3] = test: as above; conditions: incubation time: 72 h
Outline: as §1

MDA-MB-436 [4] = test: as above; conditions: incubation time: 72 h
Outline: as §1

CAL-51 [5] = test: normalised viability (% of control), CellTiter-Blue; higher = more viable cells (about 100 = DMSO control); conditions: 1 nM; incubation time: 72 h
Protocol: (§2)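 DSRT, CellTiter-Blue viability, 72 h incubation. Signal is normalised to DMSO and benzethonium chloride controls. Value is the normalised response at dose 3.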

CAL-120 [6] = test: as above; conditions: 10 nM; incubation time: 72 h
Protocol: as §2

HCC1599 [7] = test: as above; conditions: 10 nM; incubation time: 72 h
Protocol: as §2

MFM-223 [8] = test: as above; conditions: 10 nM; incubation time: 72 h
Protocol: as §2

MDA-MB-453 [9] = test: as above; conditions: 1 nM; incubation time: 72 h
Protocol: as §2

MDA-MB-231 [10] = test: as above; conditions: 10 nM; incubation time: 72 h
Protocol: as §2

Hs578T [11] = test: as above; conditions: 10 nM; incubation time: 72 h
Protocol: as §2

MDA-MB-436 [12] = test: as above; conditions: 10 nM; incubation time: 72 h
Protocol: as §2

CAL-51 [13] = test: normalised viability (% of control), CellTiter-Blue; higher = more viable cells (about 100 = DMSO control); conditions: 0.3 nM; incubation time: 72 h
Outline: (§3)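 The reported figure is normalised viability at a single listed concentration of the series. Breast cancer cell lines (20 µl suspension) went onto 384-well plates holding compound in 5 µl medium for 72 h. CellTiter-Blue (2.5 µl, 2 h, 37 °C) was read by fluorescence at 560/590 nm, and each plate was scaled to vehicle at 100 and a positive kill control at 0.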

CAL-85-1 = test: as above; conditions: 0.3 nM; incubation time: 72 h
Outline: as §3

CAL-148 = test: as above; conditions: 0.3 nM; incubation time: 72 h
Outline: as §3

HDQ-P1 = test: as above; conditions: 0.3 nM; incubation time: 72 h
Outline: as §3

CAL-120 [14] = test: as above; conditions: 1 nM; incubation time: 72 h
Outline: as §3

BT-549 [15] = test: as above; conditions: 1 nM; incubation time: 72 h
Outline: as §3

HCC1599 [16] = test: as above; conditions: 1 nM; incubation time: 72 h
Outline: as §3

DU-4475 = test: as above; conditions: 0.3 nM; incubation time: 72 h
Outline: as §3

MFM-223 [17] = test: as above; conditions: 1 nM; incubation time: 72 h
Outline: as §3

SK-BR-3 = test: as above; conditions: 1 nM; incubation time: 72 h
Outline: as §3

MDA-MB-453 [18] = test: as above; conditions: 0.3 nM; incubation time: 72 h
Outline: as §3

BT-474 = test: as above; conditions: 1 nM; incubation time: 72 h
Outline: as §3

HCC1937 [19] = test: as above; conditions: 1 nM; incubation time: 72 h
Outline: as §3

MDA-MB-231 [20] = test: as above; conditions: 1 nM; incubation time: 72 h
Outline: as §3

MDA-MB-468 = test: as above; conditions: 1 nM; incubation time: 72 h
Outline: as §3

Hs578T [21] = test: as above; conditions: 1 nM; incubation time: 72 h
Outline: as §3

HCC1143 = test: as above; conditions: 1 nM; incubation time: 72 h
Outline: as §3

MDA-MB-436 [22] = test: as above; conditions: 1 nM; incubation time: 72 h
Outline: as §3

| SMILES | drug sensitivity score (BT-549 [1]) | drug sensitivity score (MCF-10A) | drug sensitivity score (MFM-223 [2]) | drug sensitivity score (HCC1937 [3]) | drug sensitivity score (MDA-MB-436 [4]) | normalised viability (CAL-51 [5]) [%] | normalised viability (CAL-120 [6]) [%] | normalised viability (HCC1599 [7]) [%] | normalised viability (MFM-223 [8]) [%] | normalised viability (MDA-MB-453 [9]) [%] | normalised viability (MDA-MB-231 [10]) [%] | normalised viability (Hs578T [11]) [%] | normalised viability (MDA-MB-436 [12]) [%] | normalised viability (CAL-51 [13]) [%] | normalised viability (CAL-85-1) [%] | normalised viability (CAL-148) [%] | normalised viability (HDQ-P1) [%] | normalised viability (CAL-120 [14]) [%] | normalised viability (BT-549 [15]) [%] | normalised viability (HCC1599 [16]) [%] | normalised viability (DU-4475) [%] | normalised viability (MFM-223 [17]) [%] | normalised viability (SK-BR-3) [%] | normalised viability (MDA-MB-453 [18]) [%] | normalised viability (BT-474) [%] | normalised viability (HCC1937 [19]) [%] | normalised viability (MDA-MB-231 [20]) [%] | normalised viability (MDA-MB-468) [%] | normalised viability (Hs578T [21]) [%] | normalised viability (HCC1143) [%] | normalised viability (MDA-MB-436 [22]) [%] |
| --- | --- | --- | --- | --- | --- | --- | --- | --- | --- | --- | --- | --- | --- | --- | --- | --- | --- | --- | --- | --- | --- | --- | --- | --- | --- | --- | --- | --- | --- | --- | --- |
| CC(C)c1c(C(=O)Nc2ccccc2)c(-c2ccccc2)c(-c2ccc(F)cc2)n1CC[C@@H](O)C[C@@H](O)CC(=O)O [Atorvastatin] | 0 | 7.2 | 0 | 1 | 0 | – | – | – | – | – | – | – | – | – | – | – | – | – | – | – | – | – | – | – | – | – | – | – | – | – | – |
| Cn1c(=O)n(-c2ccc(C(C)(C)C#N)cc2)c2c3cc(-c4cnc5ccccc5c4)ccc3ncc21 [NVP-BEZ235] | – | – | – | – | – | 106 | 57.4 | 84.7 | 51.9 | 96.5 | 72.4 | 56.7 | 105 | 105 | 96.6 | 95.2 | 110 | 89.8 | 101 | 104 | 125 | 99.1 | 105 | 110 | 105 | 128 | 97.4 | 102 | 100 | 83.5 | 126 |
| Nc1ncnc2c1c(COc1cccc(Cl)c1)nn2C1CCOCC1 | 0.519 | 0 | 0 | 0 | 0 | – | – | – | – | – | – | – | – | – | – | – | – | – | – | – | – | – | – | – | – | – | – | – | – | – | – |
